The values below come from patent publication US4965250A, “Peptide compounds having a nitrogenous polycyclic structure” (Adir ET CIE, priority 1987, dated 1990).

SMILES strings stand for the structures.

For the assay, the system named is polynuclear leukocytes present in the whole blood of dogs. In kind it is cell-based. As to the method: The compounds according to the invention were tested for their capacity to increase non-specific phagocytosis. This test consists in measuring, after treatment by flow cytometry, the capacity of the polynuclear leukocytes present in the whole blood of dogs to phagocytose latex beads 1.8 μm in diameter, on the one hand in the absence (control) and on the other hand in the presence of a compound of the invention.

In the case of `C[C@H]1OC(=O)N[C@@H]1C(=O)N[C@@H](CCCCN)C(=O)N1C2CCC(CC2)[C@H]1C(=O)N[C@@H](CCCNC(=N)N)C(=O)O` [Example 1, Cyclo(S)Thr-(S)Lys-(S)ABO-(S)Arg-OH], the “increase relative to the control of the capacity of the polynuclear leukocytes for non-specific phagocytosis” value turned out to be 19%.
